# Tests used:
# [1] = molecular target: T1, hM3 muscarinic receptor subtype (Homo sapiens, UniProt P20309); test: Radioligand binding assay on muscarinic receptor subtypes ([3H]-NMS displacement)
# T1 construct: expressed in transfected cells; crude membranes prepared in house
# Protocol: CHO cell lines stably expressing cloned human hM1, hM2, hM3 and hM4 muscarinic receptor subtypes, respectively, were grown to near confluency in medium consisting of HAM's F-12 supplemented with 10% FBS and 250 μg/mL Geneticin. The cells were grown in a 5% CO2, 37° C. incubator and lifted with 2 mM EDTA in dPBS. Cells were collected by 5 minute centrifugation at 650×g, and cell pellets were either stored frozen at −80° C. or membranes were prepared immediately. For membrane preparation, cell pellets were resuspended in lysis buffer and homogenized with a Polytron PT-2100 tissue disrupter (Kinematica AG; 20 seconds×2 bursts). Crude membranes were centrifuged at 40,000×g for 15 minutes at 4° C. […] The protein concentration of the membrane suspension was determined by the method described in Lowry, O. et al., Journal of Biochemistry 193:265 (1951). […]
# Radioligand binding assays were performed in 96-well microtiter plates in a total assay volume of […]. […] Filter plates were rinsed three times with wash buffer (10 mM HEPES) to remove unbound radioactivity. […] The plates were then counted in a PerkinElmer Topcount liquid scintillation counter (PerkinElmer Inc., Wellesley, Mass.). Binding data were analyzed by nonlinear regression analysis with the GraphPad Prism Software package (GraphPad Software, Inc., San Diego, Calif.) using the one-site competition model. […]
# MCh response = test: Rat Einthoven assay (bronchoprotection); format: in vivo; settings: inhalation; for ID50 (bronchoprotection): 1.5 hrs post-dose
# Protocol: All test compounds are diluted in sterile water and are dosed via the inhalation route (IH). The rats (Sprague-Dawley, male, 250-350 g) are exposed to the aerosol generated from an LC Star Nebulizer Set and driven by a mixture of gases (5% CO2/95% atmospheric air). Each test compound solution is nebulized over a 10 minute time period in a pie shaped dosing chamber capable of holding six rats. At predetermined time points after inhalation of compound, the Einthoven assay is performed.
# Thirty minutes prior to the start of pulmonary evaluation, the animals are anesthetized with inactin (thiobutabarbital, 120 mg/kg IP). The jugular vein is catheterized with saline filled polyethylene catheters (PE-50) and used to infuse MCh. The trachea is then dissected and cannulated with a 14G needle and used for rat ventilation during pulmonary evaluation. Once surgery is complete, rats are ventilated using a piston respirator set at a stroke volume of 1 ml/100 g body weight but not exceeding 2.5 ml volume, and at a rate of 90 strokes per minute.
# The changes in pressure that occur with each breath are measured. Baseline values are collected for at least 2.5 minutes then rats are challenged non-cumulatively with 2-fold incremental increases of the bronchoconstrictor MCh (5, 10, 20, 40 and 80 μg/ml). The MCh is infused for 2.5 minutes from a syringe pump at a rate of 2 mL/kg/min. The animals are euthanized upon completion of the studies.
# Changes in ventilation pressure (cm H2O) in treated animals are expressed as % inhibition of MCh response relative to control animals.
# Standard muscarinic antagonists were evaluated in the rat Einthoven assay 1.5 hrs post-dose.
# Standards tiotropium and ipratropium were also evaluated 24 hr and/or 6 hr post-dose in the rat Einthoven assay. […] The observed loss of activity at this time point (6 hr) is consistent with its relatively short duration of action in the clinic.
# [2] = test system: pilocarpine-induced salivation; test: Rat antisialagogue assay; format: in vivo; settings: evaluated at 1, 6, and 24 hr post-dose
# Protocol: Rats (Sprague-Dawley, male, 250-350 g) are dosed, anesthetized and cannulated as described for Assay 3. At predetermined time points and after surgery, animals are placed on their dorsal side at a 200 incline with their head in a downward slope. A pre-weighed gauze pad is inserted in the animal's mouth and the muscarinic agonist pilocarpine (PILO) (3 mg/kg, iv.) is administered. Saliva produced during 10 minutes post-PILO is measured gravimetrically by determining the weight of the gauze pad before and after PILO. Antisialagogue effects are expressed as % inhibition of salivation relative to control animals.
# The rat antisialagogue assay was developed to assess systemic exposure and calculate the lung selectivity index (LSI) of test compounds. The standard, tiotropium, was evaluated in this model at 1, 6, and 24 hr post-dose. […] This finding is consistent with the peak effects observed in the Einthoven assay.
# This model is a modified version of the procedure described in Rechter, “Estimation of anticholinergic drug effects in mice by antagonism against pilocarpine-induced salivation” Ata Pharmacol Toxicol 24:243-254 (1996). The mean weight of saliva in vehicle-treated animals, at each pre-treatment time, is calculated and used to compute % inhibition of salivation, at the corresponding pre-treatment time, at each dose.
# T1 sequence (P20309 whole entry): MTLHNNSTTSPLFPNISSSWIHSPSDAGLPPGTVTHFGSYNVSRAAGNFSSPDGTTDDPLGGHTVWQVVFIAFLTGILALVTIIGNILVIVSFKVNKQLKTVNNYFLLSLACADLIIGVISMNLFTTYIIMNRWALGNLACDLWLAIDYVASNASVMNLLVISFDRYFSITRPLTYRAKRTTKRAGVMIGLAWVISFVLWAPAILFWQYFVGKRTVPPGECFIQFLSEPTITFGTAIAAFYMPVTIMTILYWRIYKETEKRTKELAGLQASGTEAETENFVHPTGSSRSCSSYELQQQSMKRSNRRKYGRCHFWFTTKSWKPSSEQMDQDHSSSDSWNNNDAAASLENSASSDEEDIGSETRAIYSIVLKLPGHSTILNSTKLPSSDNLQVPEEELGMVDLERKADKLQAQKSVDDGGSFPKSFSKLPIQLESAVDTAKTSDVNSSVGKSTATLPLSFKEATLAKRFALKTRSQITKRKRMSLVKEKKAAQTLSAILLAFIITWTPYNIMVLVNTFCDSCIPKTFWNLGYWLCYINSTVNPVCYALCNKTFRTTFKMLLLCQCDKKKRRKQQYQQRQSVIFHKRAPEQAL
smiles,measurement,setting,value
"C[N+]1(CCCSc2ccccc2)CC[C@@H](C(C(N)=O)(c2ccccc2)c2ccccc2)C1 (stereo partly drawn) [Example 2, (S)-3-(Carbamoyldiphenylmethyl)-1-methyl-1-(3-phenylsulfanylpropyl)pyrrolidinium]",Ki,[1],< 500 pM
C[N+]1(C)[C@@H]2C[C@@H](OC(=O)C(O)(c3cccs3)c3cccs3)C[C@H]1[C@@H]1O[C@@H]12 [tiotropium],6 hr versus 24 hr potency values,MCh response,not significantly different
same,fold more potent at 6 hr and 24 hr compared to 1.5 hr potency,MCh response,about 2 fold
same,onset of effect,MCh response,slow onset of effect
same,time of peak bronchoprotection post-dose,MCh response,6 h
same,ID50 (bronchoprotection),MCh response,6 µg/mL
same,time post dose at which most potent at inhibiting pilocarpine-induced salivation,[2],6 h
C[N+]1(C)CCC(OC(=O)C(O)(c2ccccc2)C2CCCC2)C1 (stereo not shown) [glycopyrrolate],ID50 (bronchoprotection),MCh response,15 µg/mL
CC(C)[N+]1(C)[C@@H]2CC[C@H]1C[C@@H](OC(=O)C(CO)c1ccccc1)C2 (stereo partly shown) [ipratropium],fold less potent 6-hr post-dose compared to 1.5 hr potency,MCh response; 10 and 30 μg/ml,about 3 fold
same,ID50 (bronchoprotection),MCh response,4.4 µg/mL

# From US8802856B2, “Quaternary ammonium diphenylmethyl compounds useful as muscarinic receptor antagonists” (Theravance Biopharma R&D IP, LLC, priority 2007, dated 2014)
